Results filed as inconclusive are left out. The source made the active and inactive calls.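 Rule for the calls: active = falling signal with fitted half-maximal potency no higher than twice the top valid tested dose; inconclusive = poor fit quality, or flat fit spanning -70% to -30%; inactive = potency over limit, rising signal, or flat fit inside 30%.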
Tested on: Cryptococcus neoformans growth, Alamar Blue, 24 h
Assay: fungal growth arrest, C. neoformans – Alamar Blue, cherry-picks, dose response (AID 686998)

Row | SMILES | IC50
1 | O=C(C[C@H]1CC[C@H]2[C@@H](COC[C@H](O)CN2C(=O)Nc2ccc3c(c2)OCO3)O1)N1CCN(c2ccccc2)CC1 | > 70 µM (inactive)
2 | Fc1ccc(CNC(=S)NCc2cccc(Cl)c2)cc1 | 12.3 µM
3 | O=C(c1cccnc1)N1C[C@H]2[C@@H](c3ccccc31)[C@@H](CO)N2C(=O)Nc1ccc(F)cc1 | 6.72 µM
4 | S=C(Nc1cccc(Cl)c1)Nc1ccccc1Oc1ccccc1 | 13.2 µM
5 | CC(C)NC(=O)N(C)C[C@H]1Oc2c(NS(=O)(=O)c3ccc(Cl)cc3)cccc2C(=O)N([C@@H](C)CO)C[C@@H]1C | 41.8 µM
6 | Cc1c(C(=O)NC(=S)Nc2ccccc2N2CCCC2)cccc1[N+](=O)[O-] | 2.71 µM
7 | COC(=O)C1=C(C)N(Cc2ccc(F)cc2)C(=S)NC1c1ccc(Cl)cc1 (centres undefined) | 11.4 µM
8 | S=C(NCCCc1ccccc1)Nc1ccccc1 | 8.77 µM
9 | O=C(CCN1CCCCC1)NCC[C@@H]1CC[C@H](NC(=O)c2ccc(F)cc2)[C@@H](CO)O1 | > 70 µM (inactive)
10 | CN1c2ccc(Br)cc2[C@@H]2[C@@H](CCN2C(=O)Cc2cccnc2)[C@@H]1CO | 2.15 µM
11 | CC(=O)N[C@H]1CC[C@H](CCNC(=O)C2CCC2)O[C@@H]1CO | > 70 µM (inactive)
12 | CC(=O)c1cccc(NC(=S)NC2CCCCCCC2)c1 | 10.7 µM
13 | COC(=O)C1=C(C)N(Cc2ccccc2)C(=S)NC1c1cccc(OC)c1 (centres undefined) | 32.5 µM
14 | Cc1cccc(C)c1NC(=O)C1(C)CCC(=O)N1CCCn1ccnc1 (centres undefined) | < 0.26 µM
15 | O=C(c1cccc(F)c1)N1C[C@H]2[C@@H](c3ccccc31)[C@@H](CO)N2Cc1cocn1 | > 70 µM (inactive)
16 | COCCN1C(=O)CCC1(C)C(=O)Nc1c(C)cccc1C (centres undefined) | 30.2 µM
17 | COC(=O)C1=C(C)N(Cc2ccc(Br)cc2)C(=S)NC1c1ccccc1 (centres undefined) | 13.1 µM
18 | COC(=O)C1=C(C)N(Cc2ccccc2)C(=S)N[C@H]1c1cccc(F)c1 | 13.7 µM
19 | COc1cccc(S(=O)(=O)Nc2ccc3c(c2)[C@H]2C[C@@H](CC(=O)NC4CCCCC4)O[C@@H](CO)[C@H]2O3)c1 | 6.96 µM
